Key:
hVMAT2 [1] = biological target: T1, hVMAT2 (Homo sapiens, UniProt Q05940); assay: Inhibition of [3H]DHTB binding, HEK-hVMAT2 membranes; settings: read-out: Inhibition of [3H]DHTB binding Ki ± sem, hVMAT2
hVMAT2 [2] = biological target: T1, hVMAT2; assay: Inhibition of [3H]5-HT uptake, HEK-hVMAT2 membrane preparation; format: biochemical; settings: read-out: Inhibition of [3H]5-HT uptake IC50 ± sem, hVMAT2; 40 nM [3H]5-HT, 2 mM MgATP
h5-HT2C receptor [3] = biological target: T2, h5-HT2C receptor (Homo sapiens, UniProt P28335); assay: biochemical; format: binding
T2 sequence (P28335 33-458): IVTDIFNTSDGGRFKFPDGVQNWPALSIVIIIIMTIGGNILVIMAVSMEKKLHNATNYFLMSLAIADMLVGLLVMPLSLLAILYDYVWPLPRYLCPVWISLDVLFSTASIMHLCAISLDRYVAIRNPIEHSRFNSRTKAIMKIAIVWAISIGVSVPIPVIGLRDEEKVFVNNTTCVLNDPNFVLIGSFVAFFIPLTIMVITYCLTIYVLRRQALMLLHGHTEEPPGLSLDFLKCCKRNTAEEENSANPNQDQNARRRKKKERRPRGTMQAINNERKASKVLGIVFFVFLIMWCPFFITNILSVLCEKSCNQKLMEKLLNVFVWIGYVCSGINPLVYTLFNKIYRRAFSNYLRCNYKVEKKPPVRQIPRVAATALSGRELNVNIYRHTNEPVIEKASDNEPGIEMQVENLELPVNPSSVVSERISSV

h5-HT2C receptor [4] = biological target: T2, h5-HT2C receptor; assay: Inhibition of 5-HT-stimulated IP-1 formation; format: cell-based
human DA D1 receptor = human DA D1 receptor (Homo sapiens, UniProt P21728); assay: [3H]SCH23390 binding, LhD1 cells; settings: test drugs up to the maximal concentration tested (10 µM)
human DA D1 receptor, sequence (P21728 whole entry): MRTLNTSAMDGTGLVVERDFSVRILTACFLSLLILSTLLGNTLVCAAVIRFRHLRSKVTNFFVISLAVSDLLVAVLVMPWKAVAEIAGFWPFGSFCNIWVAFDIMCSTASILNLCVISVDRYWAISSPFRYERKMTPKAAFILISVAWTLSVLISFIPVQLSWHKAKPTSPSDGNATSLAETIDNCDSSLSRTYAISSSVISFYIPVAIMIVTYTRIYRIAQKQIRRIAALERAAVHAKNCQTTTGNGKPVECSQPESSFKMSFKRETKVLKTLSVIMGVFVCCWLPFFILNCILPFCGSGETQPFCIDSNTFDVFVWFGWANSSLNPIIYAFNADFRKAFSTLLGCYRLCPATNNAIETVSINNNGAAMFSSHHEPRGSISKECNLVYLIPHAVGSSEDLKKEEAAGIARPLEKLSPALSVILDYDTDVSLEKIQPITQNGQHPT

hSigma1 receptor = hSigma1 receptor (Homo sapiens, UniProt Q99720); assay: [3H]; format: binding; settings: Inhibition of [3H]pentazocine binding Ki ± sem, hSigma1
hSigma1 receptor, sequence (Q99720 whole entry): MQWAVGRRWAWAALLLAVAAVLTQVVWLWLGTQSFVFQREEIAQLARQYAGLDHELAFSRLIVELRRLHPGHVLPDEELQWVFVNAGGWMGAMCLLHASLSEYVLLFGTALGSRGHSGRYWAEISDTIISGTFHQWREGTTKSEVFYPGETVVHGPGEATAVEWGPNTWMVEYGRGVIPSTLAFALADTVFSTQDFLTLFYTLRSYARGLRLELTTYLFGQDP

T1 sequence (Q05940 whole entry): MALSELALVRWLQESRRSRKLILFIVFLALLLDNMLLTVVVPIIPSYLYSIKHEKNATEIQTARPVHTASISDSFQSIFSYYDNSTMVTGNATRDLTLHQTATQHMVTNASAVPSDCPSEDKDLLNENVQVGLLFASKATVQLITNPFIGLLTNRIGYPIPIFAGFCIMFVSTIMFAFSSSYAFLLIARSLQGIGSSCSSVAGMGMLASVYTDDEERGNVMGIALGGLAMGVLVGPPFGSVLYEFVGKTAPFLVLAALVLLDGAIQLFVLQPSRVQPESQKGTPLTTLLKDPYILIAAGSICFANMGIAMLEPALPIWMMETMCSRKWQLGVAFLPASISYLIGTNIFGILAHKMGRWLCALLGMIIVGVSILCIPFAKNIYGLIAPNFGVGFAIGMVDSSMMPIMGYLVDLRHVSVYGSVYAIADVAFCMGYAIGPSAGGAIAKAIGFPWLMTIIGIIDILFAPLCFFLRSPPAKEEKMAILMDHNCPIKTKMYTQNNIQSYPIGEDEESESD

## CCC1(O)CC2c3cc(OC)c(OC)cc3CCN2CC1CC(C)C [RO4-1284, (2R,2S,11bs)-2-ethyl-3-isobutyl-9,10-dimethoxy-2,2,4,6,7,11b-hexahydro-1H-pyrido[2,1-a]isoquinolin-2-ol, reference compound]
hVMAT2 [1]
  Ki: 150 ± 15 nM
hVMAT2 [2]
  IC50: 98 ± 32 nM

## Cc1cc2c(cc1Cl)N(C(=O)Nc1ccc(Oc3cccnc3C)nc1)CC2 [SB242084, reference compound]
h5-HT2C receptor [3]
  Ki: 2.47 nM
h5-HT2C receptor [4]
  IC50: 0.28 ± 0.12 nM

## CN1CCc2cc(Cl)c(O)cc2[C@@H](c2ccccc2)C1 [SCH23390]
Human DA D1 receptor
  affinity for the [3H]SCH23390 binding site, DA D1 receptor: high affinity

## Oc1cc2c(cc1O)C(c1ccccc1)CNCC2 (stereo not shown) [SKF38393]
Human DA D1 receptor
  affinity for the [3H]SCH23390 binding site, DA D1 receptor: high affinity

## O=C(CCCN1CCC2(CC1)C(=O)NCN2c1ccccc1)c1ccc(F)cc1 [Spiperone, reference compound]
hSigma1 receptor
  Ki: 1310 ± 240 nM

— paper PMC3692398 (Biochemical pharmacology, 2013)
